The text below walks through data of US12630600B2 (MEDIMMUNE LIMITED, priority 2022, dated 2026).

For one data set, the system named is Pancreatin. In words: Proteolytic resistance to fasted-state simulated intestinal fluid (FasSSIF/Pancreatin). Type of data set: in vitro ADME. The conditions noted are these: 0 min, 37° C. As to the method:
A fresh suspension of FasSSIF/P (Fasted-State Simulated Intestinal Fluid+USP Pancreatin®) was prepared according to that described by Galia, Nicolaides, Hörter, Löbenberg, Reppas and Dressman: Pharm. Res. 15 (1998) 698-70.5, and USP XL requirements. The resulting preparation was used immediately without storage.
Peptide for evaluation (1.0 mg) was dissolved in pre-warmed FasSSIF without Pancreatin® (200 μL). To this fresh FasSSIF/Pancreatin® (100 μL) was added to initiate potential proteolysis. Following momentary vortexing of the reaction tube the mixture was incubated at 37° C. in a thermostatic water bath for the duration of the experiment. 25 μL aliquot of the co-incubated peptide-enzyme mixture was periodically withdrawn (t=0, 5, 10 15 and 30 min) and quenched immediately by addition to a solution of 10% TFA in 1:1 water/acetonitrile (75 μL) to arrest proteolytic activity. Quenched samples were centrifuged (7800 RPM, 3 mins) to pellet solids and 10 μL aliquots of the supernatant solution were analyzed using analytical RP-HPLC as follows: Analytical RP-HPLC method: Agilent Polaris C8-A column (4.6×100 mm, 3 micron) eluted with a linear binary gradient of 10-90% MeCN (0.1% TFA v/v) in water (0.1% TFA v/v) over either 10 or 15 mins at 1.5 mL min^−1 at 40° C. with detection by UV absorption at 210 nm. […]

In data set [1] the target is T1, porcine pancreatic pepsin (Sus scrofa, UniProt P00791).
T1 construct: purchased Sigma P7012
T1 sequence (P00791 60-385): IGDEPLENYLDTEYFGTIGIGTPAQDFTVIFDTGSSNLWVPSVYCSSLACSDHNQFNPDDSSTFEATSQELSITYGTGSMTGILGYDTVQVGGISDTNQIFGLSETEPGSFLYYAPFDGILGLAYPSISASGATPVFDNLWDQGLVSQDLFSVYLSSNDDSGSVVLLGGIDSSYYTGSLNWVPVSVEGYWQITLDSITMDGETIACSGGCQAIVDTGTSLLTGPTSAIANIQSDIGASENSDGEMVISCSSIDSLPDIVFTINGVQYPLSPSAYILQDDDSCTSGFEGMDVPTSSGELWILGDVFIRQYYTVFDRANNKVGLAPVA
Description: Proteolytic resistance to FasSSGF containing porcine pancreatic pepsin. The conditions noted are these: 0 min, FasSSGF with pepsin, 37° C. It counts as in vitro ADME. As to the method: Lyophilized porcine pancreatic pepsin (Sigma: P7012) was reconstituted to 0.5 mg/mL (˜2500 units/mL) in freshly prepared FasSSGF (Biorelevant media) to give the enzyme stock solution. Peptide stock solution was prepared to a concentration of 250 μM (˜1.0 mg/mL) in FasSSGF. 200 μL ([…], ˜250 units) of pepsin stock solution was added to 200 μL of peptide solution (1.0 mg/mL, ˜100 μg of peptide, ˜25 nmoles) and the mixture was co-incubated in a temperature-regulated incubator at 37° C. for the duration of the experiment. 30 μL aliquot of the peptide-enzyme mixture was periodically withdrawn (t=0, 5, 10, 15, and 30 min) and quenched immediately by addition of 80 μL of 0.1 M ammonium bicarbonate solution in water/acetonitrile (4:1, pH 8) to arrest proteolytic activity. 30 μL aliquot was analyzed by analytical RP-HPLC. Analytical RP-HPLC method: Agilent Polaris C8-A column (4.6×100 mm, 3 micron) eluted with a linear binary gradient of 10-90°/MeCN (0.1% TFA v/v) in water (0.1% TFA v/v) over either 10 or 15 mins at 1.5 mL min-1 at 40° C. with detection by UV absorption at 210 nm. Manual integration (AUC) allowed estimation of remaining intact peptide over the time course of the experiment.

For another data set, the target named is T2, neprilysin (Homo sapiens, UniProt P08473).
T2 construct: purchased R&D Systems 1182-ZNC-010
T2 sequence (P08473 whole entry): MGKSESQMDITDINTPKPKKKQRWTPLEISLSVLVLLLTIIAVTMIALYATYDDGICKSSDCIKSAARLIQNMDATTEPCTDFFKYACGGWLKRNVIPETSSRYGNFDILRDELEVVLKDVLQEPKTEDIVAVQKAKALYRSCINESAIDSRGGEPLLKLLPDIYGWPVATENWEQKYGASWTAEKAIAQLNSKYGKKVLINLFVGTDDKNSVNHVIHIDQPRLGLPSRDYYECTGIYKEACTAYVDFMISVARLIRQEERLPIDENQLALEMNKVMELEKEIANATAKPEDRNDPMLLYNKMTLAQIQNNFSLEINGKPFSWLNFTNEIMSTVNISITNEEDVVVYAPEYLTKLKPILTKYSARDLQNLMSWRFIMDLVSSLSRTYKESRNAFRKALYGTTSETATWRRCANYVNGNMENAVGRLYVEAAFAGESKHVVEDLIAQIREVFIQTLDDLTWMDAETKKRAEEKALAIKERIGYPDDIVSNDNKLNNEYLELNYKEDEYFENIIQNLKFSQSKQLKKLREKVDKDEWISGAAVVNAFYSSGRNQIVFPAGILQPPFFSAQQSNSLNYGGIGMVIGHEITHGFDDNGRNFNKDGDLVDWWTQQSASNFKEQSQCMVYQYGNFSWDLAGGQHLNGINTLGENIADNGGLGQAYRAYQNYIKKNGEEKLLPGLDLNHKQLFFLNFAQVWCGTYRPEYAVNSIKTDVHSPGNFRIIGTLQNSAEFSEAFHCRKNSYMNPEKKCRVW
In words: Proteolytic resistance to neprilysin. The conditions noted are these: pH 8.3. Type of data set: in vitro ADME. The method, boiled down:
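Peptide (~250 µM stock) was mixed 1:1 with recombinant neprilysin (100 µg/mL stock) in Tris/NaCl/NaHCO3 buffer, pH 8.3, at 37 °C. Aliquots taken at 0, 30 min, 1, 2, 4 and 24 h were TFA-quenched. Intact peptide remaining was estimated by RP-HPLC peak area at 210 nm.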

The conditions of data set [2]: cynomolgus monkey, in vivo, 20 nmol/kg. The text has this:
(§1) Selected test peptides (n=8) were profiled for pharmacokinetic (PK) properties in the mouse after single intravenous (i.v.) or subcutaneous (s.c.) dose. A subset (n=4) meeting the acceptance criteria was subsequently profiled in the dog (single i.v. dose) and non-human primate (single i.v. and s.c. dose). […] Low-binding plasticware containers were used during preparation and sample handling to avoid non-specific binding.
Non-human primate: PK was studied in non-naïve male cynomolgus monkeys. After dosing, PK samples were collected from the femoral vein. Blood of each sample was transferred into plastic micro centrifuge tubes containing EDTA-K2, inverted several times for proper mixing of contents and then placed on wet ice.
(§2) Samples analysis: Samples were analyzed by LC-MS/MS. Calibration standards were injected at the beginning and end of each batch and the determined concentration for each prepared standard was used to construct a calibration curve. Plasma and dose aliquot sample concentrations were determined from the plasma calibration curve.
Data analysis: Plasma concentration data was analyzed by non-compartmental analysis (NCA) using Phoenix Winnonlin v. 8.3.3.33. […] Subcutaneous bioavailability was calculated as the ratio AUC(s.c.)0-inf/AUC(i.v.)0-inf. […]

The conditions of data set [3]: dog, in vivo, iv, 10 nmol/kg.
Source text: as §1
Blood of each sample was transferred into plastic micro centrifuge tubes containing EDTA-K2, inverted several times for proper mixing of contents and then placed on wet ice.
as §2
Data analysis: Plasma concentration data was analyzed by non-compartmental analysis (NCA) using Phoenix Winnonlin v. 8.3.3.33. Linear trapezoidal rule was used for increasing values and log trapezoidal rule was used for decreasing values, applying uniform weighting for lambda_z calculations. Subcutaneous bioavailability was calculated as the ratio AUC(s.c.)0-inf/AUC(i.v.)0-inf. Reported values (Table 18) represent the mean of the individual estimates.

Where two headings read alike, the source gives them in different places. Starred links: 1 amine or outer side, 2 acyl side, 3 side chain; linkers in the order of their positions; H or OH if unused. Non-standard residues stand in square brackets, D forms with d. Residues, ends and D or L forms follow the SMILES beside them. Groups on a side chain read outwards from the residue. *: point of attachment. C20 diacid = O=C(O)CCCCCCCCCCCCCCCCCCC(=O)*; γGlu = O=C(O)[C@H](CCC(=O)[*:2])N[*:1]; αMeF = C[C@](N)(Cc1ccccc1)C(=O)O; AEEA = NCCOCCOCC(=O)O; Aib = CC(C)(N)C(=O)O

`CC[C@H](C)[C@H](NC(=O)[C@H](Cc1ccccc1)NC(=O)[C@H](CCC(=O)O)NC(=O)[C@H](CCCCNC(=O)COCCOCCNC(=O)COCCOCCNC(=O)CC[C@H](NC(=O)CCCCCCCCCCCCCCCCC(=O)O)C(=O)O)NC(=O)[C@H](C)NC(=O)[C@H](C)NC(=O)[C@H](CCC(N)=O)NC(=O)CNC(=O)[C@H](CCC(=O)O)NC(=O)[C@H](CC(C)C)NC(=O)[C@H](Cc1ccc(O)cc1)NC(=O)[C@H](CO)NC(=O)[C@H](CO)NC(=O)[C@@H](NC(=O)[C@H](CC(=O)O)NC(=O)[C@H](CO)NC(=O)[C@@H](NC(=O)[C@H](Cc1ccccc1)NC(=O)[C@@H](NC(=O)CNC(=O)[C@H](CCC(=O)O)NC(=O)C(C)(C)NC(=O)[C@@H](N)Cc1cnc[nH]1)[C@@H](C)O)[C@@H](C)O)C(C)C)C(=O)N[C@@H](C)C(=O)N[C@@H](Cc1c[nH]c2ccccc12)C(=O)N[C@@H](CC(C)C)C(=O)N[C@H](C(=O)N[C@@H](CCCNC(=N)N)C(=O)NCC(=O)N[C@@H](CCCNC(=N)N)C(=O)NCC(=O)O)C(C)C` [semaglutide, reference compound]: the “% intact peptide over time (min), FasSSIF” value with Pancreatin is 100%. In addition, in data set [1], the “% intact peptide over time (min), FasSSGF” value turned out to be 100%.

Consider `CC[C@H](C)[C@H](NC(=O)C(C)(C)NC(=O)[C@H](CCC(N)=O)NC(=O)[C@@H](NC(=O)[C@](C)(Cc1ccccc1)NC(=O)[C@H](CC(=O)O)NC(=O)[C@H](CCCCNC(=O)COCCOCCNC(=O)COCCOCCNC(=O)CC[C@H](NC(=O)CC[C@H](NC(=O)CCCCCCCCCCCCCCCCCCC(=O)O)C(=O)O)C(=O)O)NC(=O)[C@H](C)NC(=O)[C@H](C)NC(=O)[C@H](CCCNC(=N)N)NC(=O)[C@H](CO)NC(=O)[C@H](CC(=O)O)NC(=O)[C@H](CC(C)C)NC(=O)[C@](C)(Cc1ccccc1)NC(=O)[C@H](CCCCN)NC(=O)[C@H](CO)NC(=O)[C@@H](NC(=O)[C@H](CC(=O)O)NC(=O)[C@H](CO)NC(=O)[C@@H](NC(=O)[C@](C)(Cc1ccccc1)NC(=O)[C@H](CO)NC(=O)CNC(=O)[C@H](Cc1c[nH]cn1)NC(=O)C(C)(C)NC(=O)[C@@H](N)Cc1c[nH]cn1)[C@@H](C)O)C(C)C)C(C)C)C(=O)N[C@@H](C)C(=O)N[C@@H](CC(N)=O)C(=O)N[C@H](C(N)=O)[C@@H](C)O` [Peptide 229, H-Aib-H-G-S-αMePhe-T-S-D-V-S-K-αMePhe-L-D-S-R-A-A-K(ε-(O2Oc)-(O2Oc)-γE-γE-C20diacid)20-D-αMePhe-V-Q-Aib-I-A-N-T-amide] (H-H[Aib]HGS[αMeF]TSDVSK[αMeF]LDSRAAK([AEEA-AEEA-γGlu-γGlu-C20 diacid])D[αMeF]VQ[Aib]IANT-NH2), for which the “% intact peptide over time, Neprilysin” value on neprilysin came to 100%. The compound further displayed a bioavailability in data set [2] of 75%. Further, the half-life in data set [2] (iv) was 130 h; in data set [3], 86 h.
